Source: patent publication US20210196652A1, “USE OF CYSTEAMINE AND DERIVATIVES THEREOF TO TREAT DYSFUNCTIONAL TEAR SYNDROME (DTS)” (MESHABERASE, LLC, priority 2019, published 2021)

Tests used:
[1] = system: intracellular cystine levels in circulating leukocytes; settings: cited from earlier work
[2] = administered for conditions such as cystinosis; available cysteamine products; cited from earlier work
[3] = cited from earlier work
[4] = Schirmer test (filter paper strip in lower fornix) in treated DTS patients; format: in vivo, human; settings: MMP-positive patients (Patients 1 and 3)
Source text: (§1) Sterile ocular cysteamine drops with a concentration of 0.44% were used in a dosage schedule of one drop per eye, four times per day.
(§2) Four patients were self-treated with cysteamine ocular drops as described above for 30-37 days. Patients were requested to fill out a diary sheet daily and to return weekly for follow-up. Three of the four patients filled out the diary that included a 3-point Likert scale of symptoms, number of times drops were used daily, and a space for other comments. […] Patients were tested for MMP using the INFLAMMADRY test (see Kaufman) and the Schirmer test (in which a filter paper strip is placed in the lower fornix of the eyelid to absorb tears), with and without anesthesia, using Oxford grading (observation of conjunctiva and cornea using BIO-GLO fluorescein strips) at entry, and Schirmer with and without anesthesia on the final visit.

[5] = Self-treatment of dysfunctional tear syndrome patients with cysteamine ocular drops: symptom diary (3-point Likert scale), weekly interviews, patient reports; format: in vivo, human
Source text: as §1, §2
Four patients (Patients 1, 2, 3, and 4) were tested. […] Among the patients testing MMP-positive, there was an improvement in Likert-scale and other comments. […] Patients 1 and 3 returned for 4 weekly visits; Patient 2 returned for 5 weekly visits.
Patient 4 was not tested for MMP, but presented with symptoms of DTS, including years of pain and poor response to other treatments. On the theory the MMP is involved or a causative factor in recurrent epithelial erosion and dry eye, they were treated using the same regimen noted above for Patients 1, 2, and 3. Following treatment, Patient 4 reports being “cured,” and is apparently free of significant symptoms.

[6] = children with cystinosis, enteral administration

NCCS [cysteamine, Cysteamine (HS—CH2—CH—2—NH2)]
intracellular cystine levels in circulating leukocytes ([1]; Dohil et al. 2006): lowering of intracellular cystine levels | lowering of leukocyte cystine levels [1, 6]: prolonged efficacy | plasma cysteamine levels [1, 6]: increased plasma cysteamine levels | ocular adverse effects [2]: slinging and stippling erosion of the cornea | unpleasant side effects ([3]; high systemic dosing levels and frequencies, CYSTAGON package insert): gastrointestinal distress and body odor | metabolism and clearance from the body ([3]; systemic administration): converted to taurine in a matter of hours | Schirmer tests at the end of the study [4]: improvement in Schirmer tests | objective and subjective symptoms of Dry Eye Disease (DTS, dry eye, keratitis sicca) ([5]; MMP positive patients, 0.44% drops, one drop per eye, four times per day): decreases | Likert-scale (3-point scale of symptoms) and other diary comments ([5]; MMP-positive patients (Patients 1 and 3), 0.44% drops four times per day, 30-37 days): improvement | symptoms reported at interview during each weekly visit ([5]; MMP-positive patients (Patients 1 and 3), FIGS. 1 and 2): changes in symptoms indicative of improvement | need for artificial tears after starting treatment ([5]; Patient 2, MMP-negative): able to go without artificial tears for a majority of the four weeks | 3-point Likert scale of symptoms ([5]; Patient 2, MMP-negative, no objective findings of DTS): did not report changes | patient-reported outcome following treatment ([5]; Patient 4, not tested for MMP, recurrent epithelial erosion and dry eye, same regimen): cured
